Experimental data reported in US7696383B2 (Solvay Pharmaceuticals B.V., priority 2007, dated 2010).
Marks after values point to notes of the source that are not given here.

Key:
[1] = molecular target: norepinephrine reuptake sites (Homo sapiens, UniProt P23975); experiment: In vitro affinity for norepinephrine reuptake sites; type: binding
dopamine reuptake sites = dopamine reuptake sites (Homo sapiens, UniProt Q01959); experiment: In vitro affinity for dopamine reuptake sites; type: binding
Description: In vitro affinity for neurotransmitter reuptake sites were either obtained by CEREP (128, rue Danton, 92500 Rueil-Malmaison, France) or at Solvay Pharmaceuticals B. V. (C. J. van Houtenlaan 36, 1381 CP Weesp, The Netherlands), using well documented procedures. Measured were affinities for serotonin (Tatsumi, 1999), norepinephrine (Pacholczyk, 1991) and dopamine reuptake sites (Pristupa, 1994).

[2] = molecular target: T1, [3H]-norepinephrine reuptake (Rattus norvegicus, UniProt Q63380); experiment: In vitro functional inhibition of [3H]-norepinephrine reuptake, hypothalamus synaptosomes; type: biochemical
T1 construct: the hypothalamus was rapidly removed and a crude synaptosomal fraction was prepared; from tissue; host or cells: rat hypothalamus, crude synaptosomal fraction
T1 sequence (Q63380 1-617): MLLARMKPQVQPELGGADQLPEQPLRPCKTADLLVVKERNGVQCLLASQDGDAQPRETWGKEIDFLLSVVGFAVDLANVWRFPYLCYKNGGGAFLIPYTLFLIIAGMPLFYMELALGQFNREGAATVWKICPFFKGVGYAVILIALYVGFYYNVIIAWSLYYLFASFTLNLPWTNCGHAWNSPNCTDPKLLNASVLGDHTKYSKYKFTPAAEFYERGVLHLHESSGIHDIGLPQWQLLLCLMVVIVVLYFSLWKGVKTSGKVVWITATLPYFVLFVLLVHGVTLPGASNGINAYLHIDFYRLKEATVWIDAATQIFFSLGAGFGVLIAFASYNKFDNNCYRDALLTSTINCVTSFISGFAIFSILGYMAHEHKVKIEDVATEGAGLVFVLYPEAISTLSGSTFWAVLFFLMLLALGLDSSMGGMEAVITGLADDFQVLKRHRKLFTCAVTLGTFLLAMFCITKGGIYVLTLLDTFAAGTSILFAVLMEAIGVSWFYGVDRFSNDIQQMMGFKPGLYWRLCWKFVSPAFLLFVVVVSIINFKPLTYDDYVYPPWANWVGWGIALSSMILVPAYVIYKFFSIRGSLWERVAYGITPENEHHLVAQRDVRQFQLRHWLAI
Protocol: In vitro functional inhibition of [^3H]-norepinephrine reuptake: male rats (Wistar Hsd/Cpb: WU; 175-200 g) were decapitated, the hypothalamus was rapidly removed and a crude synaptosomal fraction was prepared. Synaptosomes were pre-incubated in absence or presence of the test compound for 10 min at 37° C., in a medium containing the MAO inhibitor pargyline (7 μM). Subsequently, the synaptosomes were exposed to [^3H]-norepinephrine ([…] final concentration) for 15 min. [^3H]-Norepinephrine uptake was stopped by filtration with a harvester and the non-incorporated radioactivity was removed by an extensive washing programme. The filterplates with synaptosomes were dehydrated and the amount of [^3H]-norepinephrine present was determined by Betaplate liquid scintillation counting. […] Test compounds, 10^−2 M dissolved in DMSO, were diluted in Krebs Ringer buffer to test concentrations of 10^−8-10^−5 M. Further experimental details were as described (Coyle, 1969).

[3] = Reduction of venlafaxine N-oxide in the human colon model TIM2; type: in vitro ADME; conditions: within 2 hours after dosing
Protocol: The human colon model TIM2 (TNO Intestinal Model 2): this model is a dynamic model for the human large intestine that simulates in vivo conditions. It is an artificial digestive system that has been validated by many studies (Minekus, 1999).
Suspended in 1% methylcellulose, venlafaxine-N-oxide (1 mg) was inserted into the lumen (120 ml) of the TIM2 model (see above, Minekus, 1999). Samples from the lumen and the dialysate (the latter being a model for the vascular bed of the intestines) were taken at various time intervals, and analyzed for venlafaxine-N-oxide and venlafaxine.

serotonin reuptake sites = serotonin reuptake sites (Homo sapiens, UniProt P31645); experiment: In vitro affinity for serotonin reuptake sites; type: binding
Chain of serotonin reuptake sites (P31645 whole entry): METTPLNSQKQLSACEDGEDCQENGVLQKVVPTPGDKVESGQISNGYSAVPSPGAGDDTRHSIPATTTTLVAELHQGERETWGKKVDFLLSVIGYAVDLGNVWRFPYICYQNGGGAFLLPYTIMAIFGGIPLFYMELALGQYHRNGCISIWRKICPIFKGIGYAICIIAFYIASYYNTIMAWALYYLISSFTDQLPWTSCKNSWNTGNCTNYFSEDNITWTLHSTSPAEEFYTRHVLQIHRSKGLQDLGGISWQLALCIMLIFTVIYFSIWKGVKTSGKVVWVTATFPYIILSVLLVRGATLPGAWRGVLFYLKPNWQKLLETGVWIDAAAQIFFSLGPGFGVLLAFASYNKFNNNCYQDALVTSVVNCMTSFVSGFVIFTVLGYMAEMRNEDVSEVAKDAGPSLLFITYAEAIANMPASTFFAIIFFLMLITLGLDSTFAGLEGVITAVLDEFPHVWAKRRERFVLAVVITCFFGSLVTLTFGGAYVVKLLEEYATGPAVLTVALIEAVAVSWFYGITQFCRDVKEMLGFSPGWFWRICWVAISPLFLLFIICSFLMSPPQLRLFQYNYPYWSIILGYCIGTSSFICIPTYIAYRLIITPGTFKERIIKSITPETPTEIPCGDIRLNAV

[3H]-dopamine reuptake = molecular target: T2, [3H]-dopamine reuptake (Rattus norvegicus, UniProt P23977); experiment: In vitro functional inhibition of [3H]-dopamine reuptake, striatum synaptosomes; type: biochemical
T2 construct: the striatum was rapidly removed and a crude synaptosomal fraction (P2) was prepared; from tissue; host or cells: rat striatum, crude P2 synaptosomal fraction
T2 sequence (P23977 whole entry): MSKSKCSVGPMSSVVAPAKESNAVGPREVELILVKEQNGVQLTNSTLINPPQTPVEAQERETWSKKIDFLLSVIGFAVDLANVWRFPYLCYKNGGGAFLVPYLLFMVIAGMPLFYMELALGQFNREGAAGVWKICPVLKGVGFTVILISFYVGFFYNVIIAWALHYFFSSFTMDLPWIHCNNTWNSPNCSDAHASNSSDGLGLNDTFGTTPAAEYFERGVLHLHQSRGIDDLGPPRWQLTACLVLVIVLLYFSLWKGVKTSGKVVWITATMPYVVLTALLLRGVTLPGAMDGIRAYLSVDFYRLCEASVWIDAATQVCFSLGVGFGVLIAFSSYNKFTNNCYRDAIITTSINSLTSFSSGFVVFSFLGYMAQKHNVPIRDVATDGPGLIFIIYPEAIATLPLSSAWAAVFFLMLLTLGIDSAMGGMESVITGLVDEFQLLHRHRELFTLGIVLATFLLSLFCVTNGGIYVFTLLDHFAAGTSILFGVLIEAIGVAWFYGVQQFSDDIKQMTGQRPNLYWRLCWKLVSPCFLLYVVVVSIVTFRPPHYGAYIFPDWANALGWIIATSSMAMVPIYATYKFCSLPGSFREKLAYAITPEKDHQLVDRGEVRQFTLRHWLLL
Protocol: In vitro functional inhibition of [^3H]-dopamine reuptake: male rats (Wistar Hsd/Cpb: WU; 175-200 g) were decapitated; the striatum was rapidly removed and a crude synaptosomal fraction (P2) was prepared by homogenization and centrifugation. Synaptosomes were pre-incubated in absence or presence of the test compound for 15 min at 37° C., in a medium containing the monoamine oxidase inhibitor pargyline (7×10^−6 M) (Coyle, 1969). Subsequently, [^3H]-dopamine (2×10^−7 M final concentration) was added and incubation was continued for 10 min. [^3H]-dopamine uptake was stopped by filtration and the synaptosomes were washed four times with phosphate buffered saline. The amount of [^3H]-dopamine in the synaptosomes was determined by Betaplate liquid scintillation counting. […] Inhibition of DA uptake was performed in duplicate.

[3H]-serotonin reuptake = molecular target: T3, [3H]-serotonin reuptake (Rattus norvegicus, UniProt P31652); experiment: In vitro functional inhibition of [3H]-serotonin reuptake, cerebral hemisphere synaptosomes; type: biochemical
T3 construct: the cerebral hemispheres were rapidly removed, and a P2-synaptosomal fraction was prepared; from tissue; host or cells: rat cerebral hemispheres, P2 synaptosomal fraction
T3 sequence (P31652 whole entry): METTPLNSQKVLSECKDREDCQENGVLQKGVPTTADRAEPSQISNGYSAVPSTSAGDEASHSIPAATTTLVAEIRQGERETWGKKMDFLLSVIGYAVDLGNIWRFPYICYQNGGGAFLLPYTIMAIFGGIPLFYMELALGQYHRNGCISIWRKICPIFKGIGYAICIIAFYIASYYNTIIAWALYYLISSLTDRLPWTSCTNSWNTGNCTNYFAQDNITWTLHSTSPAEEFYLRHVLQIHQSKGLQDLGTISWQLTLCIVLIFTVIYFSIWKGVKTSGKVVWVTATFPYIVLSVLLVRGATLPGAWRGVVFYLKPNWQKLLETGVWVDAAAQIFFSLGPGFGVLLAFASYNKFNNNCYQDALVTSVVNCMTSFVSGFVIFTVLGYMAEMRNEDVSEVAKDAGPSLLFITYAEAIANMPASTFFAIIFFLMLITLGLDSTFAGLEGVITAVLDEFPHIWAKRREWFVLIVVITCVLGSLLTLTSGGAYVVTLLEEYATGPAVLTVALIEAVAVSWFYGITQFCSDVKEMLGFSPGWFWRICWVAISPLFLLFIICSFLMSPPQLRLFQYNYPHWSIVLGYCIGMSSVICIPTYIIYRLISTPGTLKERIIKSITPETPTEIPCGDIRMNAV
Protocol: Subsequently, the synaptosomes were exposed to [^3H]-serotonin ([…] final concentration) for 10 min. [^3H]-Serotonine uptake was stopped by filtration with a harvester and the non-incorporated radioactivity was removed by extensive washing. Filter plates with synaptosomes were dehydrated, and the amount of [^3H]-serotonin present was determined by Betaplate liquid scintillation counting.

[4] = Plasma and brain concentrations and plasma pharmacokinetics after i.v. or p.o. administration to mice (LC-MS/MS); conditions: for AUC0→∞: Tend = ∞
Protocol: Proteins in 100 μl plasma were precipitated with acetonitrile, and 5 μl samples of the obtained solutions were analyzed. Complete brains were homogenized and centrifuged, and 10 μl samples of the supernatant were analyzed.
Liquid Chromatography-Tandem Mass Spectrometry (LC-MS/MS) was performed using a Sciex API4000 LC-MS/MS. Samples were quantified using extracted calibration samples, treated the same as the study samples, in the range of 1-5000 ng/ml and 5.0-5000 ng/brain for plasma and brain samples, respectively. Compound peak area was used for quantification. Calibration curves were fitted to the model y=A+Bx+Cx^2 (y is the peak area of the analyte, x is the nominal calibration level in ng/ml (plasma) or ng/g (brain), A is the intercept, B is the slope and C is the description of the curvature). 1/x^2 weighing was used. LC-MS/MS system performance was monitored using a reference solution injected at standard intervals. […] The Lower Limit Of Quantification (LLOQ) was established at 1.00 ng/ml and 5.00 ng/brain, for plasma and brain samples, respectively. Values below the LLOQ were given as best estimate. Reversed phase HPLC was performed using gradient elution by a Hypersil BDS C18 100×4.6 mm 3 μm analytical column, at 45° C. and with a flow of 1.00 ml/min: […]

[5] = mice, labelled compound given 1.0 mg/kg i.v., 0.5 h
[6] = mice, labelled compound given 1.0 mg/kg i.v., 1 h
[7] = mice, labelled compound given 1.0 mg/kg i.v., 3 h
[8] = mice, labelled compound given 1.0 mg/kg i.v., 7 h
[9] = mice, labelled compound given 1.0 mg/kg i.v., 24 h
[10] = mice, labelled compound given 10 mg/kg p.o., 0.5 h
[11] = mice, labelled compound given 10 mg/kg p.o., 1 h
[12] = mice, labelled compound given 10 mg/kg p.o., 3 h
[13] = mice, labelled compound given 10 mg/kg p.o., 7 h
[14] = mice, labelled compound given 10 mg/kg p.o., 24 h

Chain of dopamine reuptake sites (Q01959 whole entry): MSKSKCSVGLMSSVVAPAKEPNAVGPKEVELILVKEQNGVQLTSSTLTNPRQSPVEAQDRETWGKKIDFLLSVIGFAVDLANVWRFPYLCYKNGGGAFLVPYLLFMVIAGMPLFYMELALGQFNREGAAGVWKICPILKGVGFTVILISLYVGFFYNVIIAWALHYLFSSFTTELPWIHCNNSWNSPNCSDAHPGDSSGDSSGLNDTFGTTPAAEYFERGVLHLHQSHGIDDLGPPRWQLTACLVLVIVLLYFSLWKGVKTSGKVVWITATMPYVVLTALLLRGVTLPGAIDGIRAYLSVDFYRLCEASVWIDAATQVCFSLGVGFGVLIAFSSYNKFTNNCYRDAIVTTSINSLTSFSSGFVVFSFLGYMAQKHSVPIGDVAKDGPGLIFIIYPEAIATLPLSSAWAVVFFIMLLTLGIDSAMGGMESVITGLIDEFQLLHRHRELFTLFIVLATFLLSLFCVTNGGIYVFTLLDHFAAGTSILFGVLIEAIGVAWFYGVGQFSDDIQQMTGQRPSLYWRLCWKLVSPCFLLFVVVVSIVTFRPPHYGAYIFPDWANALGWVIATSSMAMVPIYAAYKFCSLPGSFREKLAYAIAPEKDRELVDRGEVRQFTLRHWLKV
Chain of norepinephrine reuptake sites (P23975 whole entry): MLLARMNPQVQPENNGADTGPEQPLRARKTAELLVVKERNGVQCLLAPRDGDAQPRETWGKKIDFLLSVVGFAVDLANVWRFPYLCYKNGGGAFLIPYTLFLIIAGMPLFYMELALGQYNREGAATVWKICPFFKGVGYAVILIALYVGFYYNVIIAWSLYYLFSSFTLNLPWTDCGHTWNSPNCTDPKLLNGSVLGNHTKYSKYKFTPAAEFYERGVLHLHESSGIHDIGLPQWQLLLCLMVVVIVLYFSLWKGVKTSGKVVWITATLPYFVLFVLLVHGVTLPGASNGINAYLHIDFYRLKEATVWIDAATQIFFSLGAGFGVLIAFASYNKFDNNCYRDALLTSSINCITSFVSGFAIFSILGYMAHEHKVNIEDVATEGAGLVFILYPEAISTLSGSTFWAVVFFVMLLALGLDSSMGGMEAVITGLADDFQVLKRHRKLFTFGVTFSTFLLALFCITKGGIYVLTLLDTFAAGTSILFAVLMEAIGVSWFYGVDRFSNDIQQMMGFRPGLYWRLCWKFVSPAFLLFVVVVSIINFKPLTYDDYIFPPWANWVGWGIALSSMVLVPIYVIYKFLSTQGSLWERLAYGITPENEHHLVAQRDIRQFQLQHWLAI

For `COc1ccc(C(C[N+](C)(C)[O-])C2(O)CCCCC2)cc1` (racemic) [Venlafaxine-N-oxide, (R,S)-1-[2-oxido-(dimethylamino)-1-(4-methoxyphenyl)ethyl]-cyclohexanol], the “Noradrenaline binding pKi” value [1] was less than 4.5, the “Dopamine binding pKi” value (dopamine reuptake sites) was less than 4.5 and the “Noradrenaline inhibition pIC50” value [2] was 4.9. The “Reduction to venlafaxine in TIM2” value [3] was “nearly quantitatively reduced to venlafaxine”, the “Serotonine binding pKi” value (serotonin reuptake sites) was 5.5 and the “Dopamine inhibition pIC50” value ([3H]-dopamine reuptake) was 4.5. For the same molecule, the “Serotonine inhibition pIC50” value ([3H]-serotonin reuptake) was 4.9, the Brain/plasma ratio ([4]; i.v. 1 mg/kg) was 0.1 and the bioavailability ([4]; i.v., 10 mg/kg p.o. against 1 mg/kg i.v.) was 23.3%. For the same molecule, the “Conversion in vivo after administration” value ([4]; mice) was “reduced to the parent compound”, the “Time after which venlafaxine concentrations in plasma and brain exceed those of the N-oxide” value ([4]; mice, after i.v. administration of venlafaxine-N-oxide) was “Approximately one hour” and the “Factor by which venlafaxine concentrations in plasma and brain are higher than those of the N-oxide” value ([4]; mice, after oral administration of venlafaxine-N-oxide) was 10 to 100. The “Plasma concentration of Venlafaxine” value [4, 5] was 22 ng/mL, the “Plasma concentration of Venlafaxine-N-oxide” value [4, 5] was 173 ng/mL and the “Plasma concentration of Venlafaxine” value [4, 6] was 8.0 ng/mL. The “Plasma concentration of Venlafaxine-N-oxide” value [4, 6] was 39 ng/mL, the “Plasma concentration of Venlafaxine” value [4, 7] was 0.59 ng/mL and the “Plasma concentration of Venlafaxine-N-oxide” value [4, 7] was 7.3 ng/mL. The “Plasma concentration of Venlafaxine” value [4, 8] was 0 ng/mL, the “Plasma concentration of Venlafaxine-N-oxide” value [4, 8] was 0.16 ng/mL and the “Plasma concentration of Venlafaxine” value [4, 9] was 0 ng/mL. The “Plasma concentration of Venlafaxine-N-oxide” value [4, 9] was 0 ng/mL, the “Plasma concentration of Venlafaxine” value [4, 10] was 72 ng/mL and the “Plasma concentration of Venlafaxine-N-oxide” value [4, 10] was 840 ng/mL. For the same molecule, the “Plasma concentration of Venlafaxine” value [4, 11] was 117 ng/mL, the “Plasma concentration of Venlafaxine-N-oxide” value [4, 11] was 183 ng/mL and the “Plasma concentration of Venlafaxine” value [4, 12] was 77 ng/mL. For the same molecule, the “Plasma concentration of Venlafaxine-N-oxide” value [4, 12] was 38 ng/mL, the “Plasma concentration of Venlafaxine” value [4, 13] was 3.3 ng/mL and the “Plasma concentration of Venlafaxine-N-oxide” value [4, 13] was 0.75 ng/mL. For the same molecule, the “Plasma concentration of Venlafaxine” value [4, 14] was 0.63 ng/mL, the “Plasma concentration of Venlafaxine-N-oxide” value [4, 14] was 0.12 ng/mL and the Brain penetration ([4]; mouse, in vivo) was “hardly penetrates the brain”. For the same molecule, the VD ([4]; mouse, in vivo, iv, 1 mg/kg) was 3 L/kg, the clearance ([4]; mouse, in vivo, iv, 1 mg/kg) was 46.1 mL/min/kg and the t1/2 ([4]; plasma, i.v. 1 mg/kg) was 0.8 h. The AUC0→end ([4]; plasma, i.v. 1 mg/kg, Tend = 7 hrs) was 361.6 ng·h/mL, the “AUC0→∞” value ([4]; plasma, i.v. 1 mg/kg) was 361.7 ng·h/mL and the “Cmax (C0)” value ([4]; plasma, i.v. 1 mg/kg, extrapolated to T0 (time zero)) was 1205.2 (C0)* ng/ml. It also gave a Cmax ([4]; plasma, p.o. 10 mg/kg) of 1040.0 ng/mL, a t1/2 ([4]; plasma, p.o. 10 mg/kg) of 3.1 h and an AUC0→end ([4]; plasma, p.o. 10 mg/kg, Tend = 24 hrs) of 841.6 ng·h/mL. The “AUC0→∞” value ([4]; plasma, p.o. 10 mg/kg) was 842.2 ng·h/mL.
